According to the NIST ThermoML archive (doi:10.1016/j.jct.2013.10.025):

Experiment: xn = mol fraction of the nth substance listed
Details: 101 kPa, Liquid; for viscosity: Capillary tube (Ostwald / Ubbelohde) method; for speed of sound: Sing-around technique in a fixed-path interferometer; for mass density: Vibrating tube method

C1CCOC1 [tetrahydrofuran] + CCCCCCCCO
Details	mass density [kg/m3]	speed of sound [m/s]	viscosity [mPa·s]
298.15 K, x1 = 0.0541	823.522	1344.5	6.305
298.15 K, x1 = 0.1044	825.135	1341.3	5.403
298.15 K, x1 = 0.1535	826.78	1337.5	4.698
298.15 K, x1 = 0.205	828.609	1333.5	4.025
298.15 K, x1 = 0.2574	830.564	1329.8	3.477
298.15 K, x1 = 0.3054	832.449	1326.5	2.996
298.15 K, x1 = 0.4003	836.541	1319.6	2.307
298.15 K, x1 = 0.5004	841.464	1312.2	1.747
298.15 K, x1 = 0.6111	847.802	1302.9	1.271
298.15 K, x1 = 0.7032	853.984	1295.5	0.996
298.15 K, x1 = 0.8116	862.541	1287.9	0.747
298.15 K, x1 = 0.9048	871.362	1281.7	0.589
303.15 K, x1 = 0.0541	819.992	1327.7	5.227
303.15 K, x1 = 0.1044	821.552	1324.3	4.562
303.15 K, x1 = 0.1535	823.145	1320.4	3.988
303.15 K, x1 = 0.205	824.915	1316	3.395
303.15 K, x1 = 0.2574	826.809	1312.4	3.014
303.15 K, x1 = 0.3054	828.634	1308.7	2.602
303.15 K, x1 = 0.4003	832.585	1301.4	2.089
303.15 K, x1 = 0.5004	837.343	1293.4	1.566
303.15 K, x1 = 0.6111	843.471	1283.4	1.173
303.15 K, x1 = 0.7032	849.444	1275.5	0.931
303.15 K, x1 = 0.8116	857.718	1266.9	0.715
303.15 K, x1 = 0.9048	866.235	1259.7	0.566
308.15 K, x1 = 0.0541	816.44	1310.7	4.208
308.15 K, x1 = 0.1044	817.948	1307.3	3.709
308.15 K, x1 = 0.1535	819.488	1303	3.217
308.15 K, x1 = 0.205	821.202	1298.8	2.779
308.15 K, x1 = 0.2574	823.029	1294.7	2.46
308.15 K, x1 = 0.3054	824.796	1290.9	2.176
308.15 K, x1 = 0.4003	828.614	1283.1	1.748
308.15 K, x1 = 0.5004	833.216	1274.6	1.348
308.15 K, x1 = 0.6111	839.116	1264.1	1.014
308.15 K, x1 = 0.7032	844.874	1255.2	0.819
308.15 K, x1 = 0.8116	852.874	1244.9	0.632
308.15 K, x1 = 0.9048	861.083	1237	0.514
313.15 K, x1 = 0.0541	812.862	1294.2	–
313.15 K, x1 = 0.1044	814.315	1290.6	–
313.15 K, x1 = 0.1535	815.803	1286.2	–
313.15 K, x1 = 0.205	817.465	1282	–
313.15 K, x1 = 0.2574	819.222	1277.6	–
313.15 K, x1 = 0.3054	820.932	1273.8	–
313.15 K, x1 = 0.4003	824.625	1265.5	–
313.15 K, x1 = 0.5004	829.064	1256.5	–
313.15 K, x1 = 0.6111	834.743	1245.4	–
313.15 K, x1 = 0.7032	840.294	1236.1	–
313.15 K, x1 = 0.8116	848	1225	–
313.15 K, x1 = 0.9048	855.903	1216.3	–
